Data reported in PMC12638379, “An innovative approach to development of new pyrazolylquinolin-2-one hybrids as dual EGFR and BRAF^V600E inhibitors” (Molecular Diversity, 2025).
Like-named read-outs stand apart in the source and are kept apart here.

System: NCI 60 cancer cell lines
Experiment: NCI anticancer screening over a panel of 60 cancer cells, single concentration 10 µM
Type: cell-based, human
Conditions: Homo sapiens, read-out: % Growth Inhibition (GI %)
How it was run: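 Primary single-dose screen at 10 µM over the NCI panel of 60 human tumour cell lines (leukemia, CNS, lung, colon, kidney, ovary, breast, prostate). The standard NCI Developmental Therapeutics Program protocol was used.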

[1] = 786-0, Renal cancer 786-0, 10 μM
[2] = A549, Non-small cell lung cancer A549/ATCC, 10 μM
[3] = BT-549, Breast cancer BT-549, 10 μM
[4] = CAKI-1, Renal cancer CAKI-1, 10 μM
[5] = CCRF-CEM, Leukemia CCRF-CEM, 10 μM
[6] = COLO 205, Colon cancer COLO 205, 10 μM
[7] = DU-145, Prostate cancer DU-145, 10 μM
[8] = EKVX, Non-small cell lung cancer EKVX, 10 μM
[9] = HCC 2998, Colon cancer HCC-2998, 10 μM
[10] = HCT-15, Colon cancer HCT-15, 10 μM
[11] = HCT-116, Colon cancer HCT-116, 10 μM
[12] = HL-60, Leukemia HL-60(TB), 10 μM
[13] = HOP-62, Non-small cell lung cancer HOP-62, 10 μM
[14] = HOP-92, Non-small cell lung cancer HOP-92, 10 μM
[15] = HT-29, Colon cancer HT29, 10 μM
[16] = Hs-578T, Breast cancer HS 578T, 10 μM
[17] = IGROV-1, Ovarian cancer IGROV1, 10 μM
[18] = LOX IMVI, Melanoma LOX IMVI, 10 μM
[19] = MCF7, Breast cancer MCF7, 10 μM
[20] = MDA-MB-231, Breast cancer MDA-MB-231/ATCC, 10 μM
[21] = MDA-MB-435, Melanoma MDA-MB-435, 10 μM
[22] = MDA-MB-468, Breast cancer MDA-MB-468, 10 μM
[23] = NCI-H23, Non-small cell lung cancer NCI-H23, 10 μM
[24] = NCI-H226, Non-small cell lung cancer NCI-H226, 10 μM
[25] = NCI-H322M, Non-small cell lung cancer NCI-H322M, 10 μM
[26] = NCI-H460, Non-small cell lung cancer NCI-H460, 10 μM
[27] = NCI-H522, Non-small cell lung cancer NCI-H522, 10 μM
[28] = NCI/ADR-RES, Ovarian cancer NCI/ADR-RES, 10 μM
[29] = OVCAR-3, Ovarian cancer OVCAR-3, 10 μM
[30] = OVCAR-4, Ovarian cancer OVCAR-4, 10 μM
[31] = OVCAR-5, Ovarian cancer OVCAR-5, 10 μM
[32] = OVCAR-8, Ovarian cancer OVCAR-8, 10 μM
[33] = RPMI-8226, Leukemia RPMI-8226, 10 μM
[34] = RXF 393, Renal cancer RXF 393, 10 μM
[35] = SF-268, CNS Cancer SF-268, 10 μM
[36] = SF-295, CNS Cancer SF-295, 10 μM
[37] = SF-539, CNS Cancer SF-539, 10 μM
[38] = SK-MEL-2, Melanoma SK-MEL-2, 10 μM
[39] = SK-MEL-5, Melanoma SK-MEL-5, 10 μM
[40] = SK-MEL-28, Melanoma SK-MEL-28, 10 μM
[41] = SK-OV-3, Ovarian cancer SK-OV-3, 10 μM
[42] = SN12C, Renal cancer SN12C, 10 μM
[43] = SNB-19, CNS Cancer SNB-19, 10 μM
[44] = SNB-75, CNS Cancer SNB-75, 10 μM
[45] = SW-620, Colon cancer SW-620, 10 μM
[46] = T47D, Breast cancer T-47D, 10 μM
[47] = TK-10, Renal cancer TK-10, 10 μM
[48] = UACC-62, Melanoma UACC-62, 10 μM
[49] = UACC-257, Melanoma UACC-257, 10 μM
[50] = UO-31, Renal cancer UO-31, 10 μM

`C/C(=N\Nc1ccc(C(=O)O)cc1)c1cnn(-c2cc(=O)[nH]c3ccc(Cl)cc23)c1C` [Compound 4i, (E)-4-(2-(1-(1-(6-chloro-2-oxo-1,2-dihydroquinolin-4-yl)-5-methyl-1H-pyrazol-4-yl)ethylidene)hydrazineyl)benzoic acid] was tested. Which inhibition at 10 µM [1] did it give?
Its inhibition at 10 µM is under 5%.

What about the inhibition at 10 µM (A498, Renal cancer A498, 10 μM) of the same compound?
Its inhibition at 10 µM is under 5%.

And the inhibition at 10 µM [2]?
Its inhibition at 10 µM is under 5%.

And the inhibition at 10 µM (ACHN, Renal cancer ACHN, 10 μM)?
Its inhibition at 10 µM is under 5%.

And the inhibition at 10 µM [3]?
The inhibition at 10 µM was under 5%.

What about the inhibition at 10 µM [4] of the same compound?
Its inhibition at 10 µM is 10.8%.

What about the inhibition at 10 µM [5] of the same compound?
The inhibition at 10 µM was under 5%.

And the inhibition at 10 µM [6]?
The inhibition at 10 µM was under 5%.

And the inhibition at 10 µM [7]?
Its inhibition at 10 µM is under 5%.

And the inhibition at 10 µM [8]?
The inhibition at 10 µM was under 5%.

And the inhibition at 10 µM [9]?
The inhibition at 10 µM was under 5%.

And the inhibition at 10 µM [10]?
The inhibition at 10 µM was under 5%.

What about the inhibition at 10 µM [11] of the same compound?
Its inhibition at 10 µM is under 5%.

What about the inhibition at 10 µM [12] of the same compound?
The inhibition at 10 µM was 5.88%.

What about the inhibition at 10 µM [13] of the same compound?
Its inhibition at 10 µM is under 5%.

What about the inhibition at 10 µM [14] of the same compound?
The inhibition at 10 µM was 36.7%.

And the inhibition at 10 µM [15]?
Its inhibition at 10 µM is under 5%.

What about the inhibition at 10 µM [16] of the same compound?
Its inhibition at 10 µM is 6.25%.

What about the inhibition at 10 µM [17] of the same compound?
The inhibition at 10 µM was under 5%.

What about the inhibition at 10 µM (K562, Leukemia K-562, 10 μM) of the same compound?
The inhibition at 10 µM was 7.48%.

What about the inhibition at 10 µM (KM12, Colon cancer KM12, 10 μM) of the same compound?
The inhibition at 10 µM was under 5%.

And the inhibition at 10 µM [18]?
The inhibition at 10 µM was under 5%.

What about the inhibition at 10 µM (Leukemia SR, 10 μM) of the same compound?
Its inhibition at 10 µM is under 5%.

What about the inhibition at 10 µM [19] of the same compound?
The inhibition at 10 µM was 8.38%.

What about the inhibition at 10 µM [20] of the same compound?
Its inhibition at 10 µM is 12.9%.

And the inhibition at 10 µM [21]?
The inhibition at 10 µM was under 5%.

And the inhibition at 10 µM [22]?
Its inhibition at 10 µM is under 5%.

And the inhibition at 10 µM (MOLT-4, Leukemia MOLT-4, 10 μM)?
The inhibition at 10 µM was under 5%.

What about the inhibition at 10 µM (Melanoma M14, 10 μM) of the same compound?
The inhibition at 10 µM was under 5%.

What about the inhibition at 10 µM (Melanoma MALM-3M, 10 μM) of the same compound?
Its inhibition at 10 µM is 19.4%.

And the inhibition at 10 µM [23]?
Its inhibition at 10 µM is under 5%.

And the inhibition at 10 µM [24]?
The inhibition at 10 µM was under 5%.

And the inhibition at 10 µM [25]?
The inhibition at 10 µM was under 5%.

And the inhibition at 10 µM [26]?
The inhibition at 10 µM was under 5%.

And the inhibition at 10 µM [27]?
The inhibition at 10 µM was under 5%.

And the inhibition at 10 µM [28]?
The inhibition at 10 µM was under 5%.

What about the inhibition at 10 µM [29] of the same compound?
The inhibition at 10 µM was under 5%.

And the inhibition at 10 µM [30]?
The inhibition at 10 µM was under 5%.

What about the inhibition at 10 µM [31] of the same compound?
Its inhibition at 10 µM is under 5%.

What about the inhibition at 10 µM [32] of the same compound?
Its inhibition at 10 µM is under 5%.

What about the inhibition at 10 µM (Prostate cancer PC-3, 10 μM) of the same compound?
Its inhibition at 10 µM is under 5%.

What about the inhibition at 10 µM [33] of the same compound?
The inhibition at 10 µM was under 5%.

And the inhibition at 10 µM [34]?
Its inhibition at 10 µM is under 5%.

What about the inhibition at 10 µM [35] of the same compound?
The inhibition at 10 µM was under 5%.

And the inhibition at 10 µM [36]?
Its inhibition at 10 µM is under 5%.

What about the inhibition at 10 µM [37] of the same compound?
Its inhibition at 10 µM is under 5%.

What about the inhibition at 10 µM [38] of the same compound?
The inhibition at 10 µM was under 5%.

What about the inhibition at 10 µM [39] of the same compound?
The inhibition at 10 µM was under 5%.

And the inhibition at 10 µM [40]?
The inhibition at 10 µM was under 5%.

What about the inhibition at 10 µM [41] of the same compound?
Its inhibition at 10 µM is 5.11%.

What about the inhibition at 10 µM [42] of the same compound?
The inhibition at 10 µM was under 5%.

What about the inhibition at 10 µM [43] of the same compound?
The inhibition at 10 µM was under 5%.

What about the inhibition at 10 µM [44] of the same compound?
The inhibition at 10 µM was 5.56%.

And the inhibition at 10 µM [45]?
Its inhibition at 10 µM is under 5%.

What about the inhibition at 10 µM [46] of the same compound?
Its inhibition at 10 µM is 6.23%.

And the inhibition at 10 µM [47]?
The inhibition at 10 µM was under 5%.

What about the inhibition at 10 µM (U-251, CNS Cancer U251, 10 μM) of the same compound?
The inhibition at 10 µM was under 5%.

And the inhibition at 10 µM [48]?
The inhibition at 10 µM was 6.04%.

What about the inhibition at 10 µM [49] of the same compound?
Its inhibition at 10 µM is under 5%.

And the inhibition at 10 µM [50]?
The inhibition at 10 µM was 29.1%.

What does the source list for `C/C(=N\Nc1ccc(C(=O)O)cc1)c1cnn(-c2cc(=O)[nH]c3ccc(Br)cc23)c1C` [Compound 4j, (E)-4-(2-(1-(1-(6-bromo-2-oxo-1,2-dihydroquinolin-4-yl)-5-methyl-1H-pyrazol-4-yl)ethylidene)hydrazineyl)benzoic acid]?
inhibition at 10 µM [1]: < 5%; inhibition at 10 µM (A498, Renal cancer A498, 10 μM): < 5%; inhibition at 10 µM [2]: < 5%; inhibition at 10 µM (ACHN, Renal cancer ACHN, 10 μM): < 5%; inhibition at 10 µM [3]: < 5%; inhibition at 10 µM [4]: 14.7%; inhibition at 10 µM [5]: < 5%; inhibition at 10 µM [6]: < 5%; inhibition at 10 µM [7]: < 5%; inhibition at 10 µM [8]: 6.05%; inhibition at 10 µM [9]: < 5%; inhibition at 10 µM [10]: < 5%; inhibition at 10 µM [11]: < 5%; inhibition at 10 µM [12]: 7.02%; inhibition at 10 µM [13]: 5.55%; inhibition at 10 µM [14]: < 5%; inhibition at 10 µM [15]: < 5%; inhibition at 10 µM [16]: 11.7%; inhibition at 10 µM [17]: < 5%; inhibition at 10 µM (K562, Leukemia K-562, 10 μM): < 5%; inhibition at 10 µM (KM12, Colon cancer KM12, 10 μM): < 5%; inhibition at 10 µM [18]: < 5%; inhibition at 10 µM (Leukemia SR, 10 μM): 7.14%; inhibition at 10 µM [19]: < 5%; inhibition at 10 µM [20]: 17%; inhibition at 10 µM [21]: < 5%; inhibition at 10 µM [22]: < 5%; inhibition at 10 µM (MOLT-4, Leukemia MOLT-4, 10 μM): < 5%; inhibition at 10 µM (Melanoma M14, 10 μM): < 5%; inhibition at 10 µM (Melanoma MALM-3M, 10 μM): 14.4%; inhibition at 10 µM [23]: < 5%; inhibition at 10 µM [24]: 5.42%; inhibition at 10 µM [25]: < 5%; inhibition at 10 µM [26]: < 5%; inhibition at 10 µM [27]: < 5%; inhibition at 10 µM [28]: < 5%; inhibition at 10 µM [29]: < 5%; inhibition at 10 µM [30]: < 5%; inhibition at 10 µM [31]: < 5%; inhibition at 10 µM [32]: < 5%; inhibition at 10 µM (Prostate cancer PC-3, 10 μM): < 5%; inhibition at 10 µM [33]: < 5%; inhibition at 10 µM [34]: < 5%; inhibition at 10 µM [35]: < 5%; inhibition at 10 µM [36]: < 5%; inhibition at 10 µM [37]: 7.41%; inhibition at 10 µM [38]: < 5%; inhibition at 10 µM [39]: < 5%; inhibition at 10 µM [40]: < 5%; inhibition at 10 µM [41]: 4.08%; inhibition at 10 µM [42]: < 5%; inhibition at 10 µM [43]: < 5%; inhibition at 10 µM [44]: 17.2%; inhibition at 10 µM [45]: < 5%; inhibition at 10 µM [46]: 7.76%; inhibition at 10 µM [47]: < 5%; inhibition at 10 µM (U-251, CNS Cancer U251, 10 μM): < 5%; inhibition at 10 µM [48]: 6.6%; inhibition at 10 µM [49]: < 5%; inhibition at 10 µM [50]: 39.3%
